Common to all, as to type: cell-based
One assay has as its system Moraxella catarrhalis. Briefly: MIC against Gram-negative bacteria: Moraxella catarrhalis. As to conditions: 5×10^5 CFU/mL; for MIC against M. catarrhalis: Moraxella catarrhalis. How it is done: (§1) 1. Gram-negative bacteria, such as E. coli BL21, Pseudomonas aeruginosa, Klebsiella pneumonia, Enterobacter cloacae, Aeromonas hydrophila, Citrobacter diversus, Moraxella catarrhalis, Proteus mirabilis, Proteus vulgaris, Serratia marcescens, etc were streaked on solid LB medium and cultured respectively. Then, typical clones were picked, inoculated into common liquid LB medium respectively, and cultured at 37° C. with shaking at 185 rpm until the McFarland specific turbidity was 0.5. The bacterial culture of each of Gram-negative bacteria was centrifuged at 4000×g for 3 min, the supernatant was discarded, and the thalli were resuspended with fresh LB medium.
(§2) 2. The above-mentioned bacterial suspensions were diluted and inoculated into 96-well plates with the final concentration of the bacterial suspension being 5×10^5 CFU/mL per well.
(§3) 3. Each of the purified human-originated EGF domain proteins (PRT1 to PRT1498 in Table 1) was added to each of the above wells and subjected to two-fold serial dilution in concentration. Three parallel wells were set up for each concentration in the gradient.
(§4) 4. The above-mentioned 96-well plates were placed and cultured at 37° C. in shaking incubator shaking at 175 rpm. […] The minimal inhibitory concentration MIC is defined as the lowest concentration of the recombinant protein at which there is no growth of the bacteria.

The next assay deals with E. coli BL21. Briefly: MIC against Gram-negative bacteria: E. coli BL21. As to conditions: E. coli BL21, 5×10^5 CFU/mL. How it is done: as §1, §2, §3, §4
The test system of another assay is E. coli DH5α. Briefly: Antibacterial activity: MIC and growth curve against E. coli DH5α in 96-well plate. As to conditions: minimal inhibitory concentration against E. coli DH5α; 96-well plate, 5×10^5 CFU/mL, 37° C., judged after 8 h. As to the method:
1. E. coli DH5α was exemplified. E. coli DH5α was streaked and cultured on LB solid medium. Then, a typical clone was picked and inoculated into common LB liquid medium, cultured at 37° C. with shaking at 185 rpm until the logarithmic growth phase was reached (OD600 of about 0.5). The bacterial culture was centrifuged at 4000×g for 3 min, the supernatant was discarded, and the thalli were resuspended with fresh LB medium.
2. The above-mentioned bacterial suspension was diluted and inoculated into a 96-well plate with the total volume of 100 μL per well and a bacterial count of 5×10^5 CFU/mL.
3. The recombinant protein hF VII-EGF1 was added to the above-mentioned wells with the final protein concentration in the well of the highest protein concentration being 50 μg/mL. Basing on this final concentration, a two-fold serial dilution was performed till a protein concentration gradient consisting of 50, 25, and 12.5 μg/mL was set up. Three parallel wells were set up for each concentration in the gradient.
4. The above-mentioned 96-well plate was placed and cultured at 37° C. in shaking incubator shaking at 175 rpm. Samples were taken every 30 min, the absorbance values were determined at 600 nm wavelength under a ultra violet spectrophotometer, and an inhibition curve was plotted. […] The minimal inhibitory concentration MIC is defined as the lowest concentration of the recombinant protein at which there is no growth of the bacteria.
According to the experimental procedures in Example 14, the minimal inhibitory concentrations (MIC, μg/mL) of the other human-originated EGF domain proteins (PRT2 to PRT1498 in Table 1) for E. coli DH5α were determined.

The test system of a further assay is Serratia marcescens. Briefly: MIC against Gram-negative bacteria: Serratia marcescens. As to conditions: 5×10^5 CFU/mL; for MIC against S. marcescens: Serratia marcescens. How it is done: as §1, §2, §3, §4
Another assay concerns Proteus mirabilis. The experiment in a line: MIC against Gram-negative bacteria: Proteus mirabilis. As to conditions: 5×10^5 CFU/mL; for MIC against P. mirabilis: Proteus mirabilis. How it is done:
as §1, §2, §3, §4

The subject of a further assay is Klebsiella pneumonia. Briefly: MIC against Gram-negative bacteria: Klebsiella pneumonia. As to conditions: 5×10^5 CFU/mL; for MIC against K. pneumonia: Klebsiella pneumonia. As to the method:
as §1, §2, §3, §4

In another assay the test system is Enterobacter cloacae. The experiment in a line: MIC against Gram-negative bacteria: Enterobacter cloacae. As to conditions: 5×10^5 CFU/mL; for MIC against E. cloacae: Enterobacter cloacae. How it is done: as §1, §2, §3, §4
The next assay deals with Citrobacter diversus. The experiment in a line: MIC against Gram-negative bacteria: Citrobacter diversus. As to conditions: 5×10^5 CFU/mL; for MIC against C. diversus: Citrobacter diversus. How it is done: as §1, §2, §3, §4
The next assay relates to Aeromonas hydrophila. The experiment in a line: MIC against Gram-negative bacteria: Aeromonas hydrophila. As to conditions: 5×10^5 CFU/mL; for MIC against A. hydrophila: Aeromonas hydrophila. As to the method: as §1, §2, §3, §4
For another assay, the system named is Pseudomonas aeruginosa. Briefly: MIC against Gram-negative bacteria: Pseudomonas aeruginosa. As to conditions: 5×10^5 CFU/mL; for MIC against P. aeruginosa: Pseudomonas aeruginosa. As to the method:
as §1, §2, §3, §4

A further assay has as its system Proteus vulgaris. Briefly: MIC against Gram-negative bacteria: Proteus vulgaris. As to conditions: 5×10^5 CFU/mL; for MIC against P. vulgaris: Proteus vulgaris. How it is done: as §1, §2, §3, §4

With “PRT145 (DVNECEIYSGTPLSCQNGGTCVNTMGSYSCHCPPETYGPQCA; listed as Homo sapiens)”, the “MIC (μg/mL) M. catarrhalis” value with Moraxella catarrhalis (M. catarrhalis, 10 h cultivation at 37° C.) was 12.5 µg/mL. Further, in the assay with E. coli BL21 (10 h cultivation at 37° C.), the “MIC (μg/mL) E. coli BL21” value amounted to 12.5 µg/mL. Besides, the MIC in the assay with E. coli DH5α stood at 12.5 µg/mL. Also, the “MIC (μg/mL) S. marcescens” value against Serratia marcescens (S. marcescens, 10 h cultivation at 37° C.) is 25 µg/mL. The “MIC (μg/mL) P. mirabilis” value against Proteus mirabilis (P. mirabilis, 10 h cultivation at 37° C.) came to 25 µg/mL. In addition, the “MIC (μg/mL) K. pneumonia” value with Klebsiella pneumonia (K. pneumonia, 10 h cultivation at 37° C.) came out at 12.5 µg/mL. In the assay on Enterobacter cloacae (E. cloacae, 10 h cultivation at 37° C.), the “MIC (μg/mL) E. cloacae” value was 12.5 µg/mL. Moreover, in the assay on Citrobacter diversus (C. diversus, 10 h cultivation at 37° C.), the “MIC (μg/mL) C. diversus” value was found to be 12.5 µg/mL. The “MIC (μg/mL) A. hydrophila” value in the assay on Aeromonas hydrophila (A. hydrophila, 10 h cultivation at 37° C.) came to 12.5 µg/mL. The “MIC (μg/mL) P. aeruginosa” value against Pseudomonas aeruginosa (P. aeruginosa, 10 h cultivation at 37° C.) turned out to be 12.5 µg/mL. Besides, the “MIC (μg/mL) P. vulgaris” value in the assay with Proteus vulgaris (P. vulgaris, 10 h cultivation at 37° C.) was found to be 12.5 µg/mL.

Consider “PRT1256 (DVDECQDNNGGCQQICVNAMGSYECQCHSGFFLSDNQ; listed as Homo sapiens)”, for which the “MIC against M. catarrhalis” value against Moraxella catarrhalis (96-well plate, 37° C., 10 h) is 50 µg/mL. Also, the “MIC against E. coli BL21” value in the assay with E. coli BL21 (96-well plate, 37° C., 10 h) was found to be 12.5 µg/mL. For the same substance, the MIC against E. coli DH5α came out at 25 µg/mL. Besides, the “MIC against S. marcescens” value in the assay on Serratia marcescens (96-well plate, 37° C., 10 h) amounted to 25 µg/mL. The “MIC against P. mirabilis” value in the assay with Proteus mirabilis (96-well plate, 37° C., 10 h) came to 12.5 µg/mL. Moreover, in the assay with Klebsiella pneumonia (96-well plate, 37° C., 10 h), the “MIC against K. pneumonia” value is 12.5 µg/mL. Besides, the “MIC against E. cloacae” value against Enterobacter cloacae (96-well plate, 37° C., 10 h) was found to be 25 µg/mL. Also, the “MIC against C. diversus” value with Citrobacter diversus (96-well plate, 37° C., 10 h) is 12.5 µg/mL. Besides, the “MIC against A. hydrophila” value against Aeromonas hydrophila (96-well plate, 37° C., 10 h) is 50 µg/mL. Moreover, the “MIC against P. aeruginosa” value with Pseudomonas aeruginosa (96-well plate, 37° C., 10 h) came out at 25 µg/mL. For the same substance, in the assay on Proteus vulgaris (96-well plate, 37° C., 10 h), the “MIC against P. vulgaris” value was 50 µg/mL.

As for “PRT1493 (QQAECPGGCRNGGFCNERRICECPDGFHGPHCE; listed as Homo sapiens)”, the “MIC against M. catarrhalis” value against Moraxella catarrhalis (10 h cultivation at 37° C.) worked out at 25 µg/mL. Also, in the assay with E. coli BL21 (10 h cultivation at 37° C.), the “MIC against E. coli BL21” value is 25 µg/mL. The substance further displayed an MIC against E. coli DH5α of 100 µg/mL. Further, the “MIC against S. marcescens” value in the assay on Serratia marcescens (10 h cultivation at 37° C.) was found to be 50 µg/mL. The “MIC against P. mirabilis” value in the assay on Proteus mirabilis (10 h cultivation at 37° C.) was determined as 50 µg/mL. In the assay with Klebsiella pneumonia (10 h cultivation at 37° C.), the “MIC against K. pneumonia” value turned out to be 12.5 µg/mL. In the assay with Enterobacter cloacae (10 h cultivation at 37° C.), the “MIC against E. cloacae” value was determined as 12.5 µg/mL. Moreover, in the assay with Citrobacter diversus (10 h cultivation at 37° C.), the “MIC against C. diversus” value came out at 50 µg/mL. In the assay on Aeromonas hydrophila (10 h cultivation at 37° C.), the “MIC against A. hydrophila” value came out at 50 µg/mL. Also, the “MIC against P. aeruginosa” value with Pseudomonas aeruginosa (10 h cultivation at 37° C.) came out at 12.5 µg/mL. Besides, the “MIC against P. vulgaris” value against Proteus vulgaris (10 h cultivation at 37° C.) was 25 µg/mL.

On to “PRT1295 (RTSPCDNFDCQNGAQCIVRINEPICQCLPGYQGEKCE; listed as Homo sapiens)”, for which the “MIC against M. catarrhalis” value in the assay on Moraxella catarrhalis (96-well plate, 37° C., 10 h) stood at 50 µg/mL. In addition, the “MIC against E. coli BL21” value against E. coli BL21 (96-well plate, 37° C., 10 h) was determined as 50 µg/mL. This substance also returned an MIC against E. coli DH5α of 12.5 µg/mL. Further, the “MIC against S. marcescens” value against Serratia marcescens (96-well plate, 37° C., 10 h) stood at 12.5 µg/mL. Further, the “MIC against P. mirabilis” value against Proteus mirabilis (96-well plate, 37° C., 10 h) was 12.5 µg/mL. Also, the “MIC against K. pneumonia” value in the assay on Klebsiella pneumonia (96-well plate, 37° C., 10 h) is 50 µg/mL. The “MIC against E. cloacae” value against Enterobacter cloacae (96-well plate, 37° C., 10 h) amounted to 12.5 µg/mL. The “MIC against C. diversus” value against Citrobacter diversus (96-well plate, 37° C., 10 h) turned out to be 12.5 µg/mL. The “MIC against A. hydrophila” value in the assay on Aeromonas hydrophila (96-well plate, 37° C., 10 h) was 50 µg/mL. Moreover, the “MIC against P. aeruginosa” value with Pseudomonas aeruginosa (96-well plate, 37° C., 10 h) was found to be 12.5 µg/mL. In addition, in the assay on Proteus vulgaris (96-well plate, 37° C., 10 h), the “MIC against P. vulgaris” value is 50 µg/mL.

Broadly, the MIC is the smallest concentration in the dilution series that meets the test's criterion for growth inhibition. High values mean a need for much substance, low ones inhibition by little substance.
